Source: ChEMBL document CHEMBL3507680, “University of Dundee, Gates Library screen for HepG2 cell viability”

Assay: Human HepG2 cell viability assay in 384 well format
Type: toxicity, cell-based
Parameters: dose 125 nL, time 70.5 hour; concentration not given beside the values
Settings: HepG2 cells, read-out: Inhibition

Row | SMILES | cytotoxicity at 70.5 h
1 | Cc1cc(CCC(N)=O)cc(C2CCCN2Cc2cnc(C)nc2)n1 (centres undefined) | -7.32%
2 | CCC(C)CS(=O)(=O)NCCc1csc(N2CCCC2)n1 (centres undefined) | -1.21%
3 | Cc1ccc(CN(C)C(=O)c2cc3c(c(S(N)(=O)=O)c2)CCC3)o1 | -1.72%
4 | NC(=O)C1CCN(Cc2ccc(S(=O)(=O)N3CCCC3)o2)CC1 | -3.5%
5 | O=C(c1ccc[nH]1)N1CCN(C(c2ccccc2)C(F)(F)F)CC1 (centres undefined) | -7.16%
6 | Cc1cc(CN2CCc3cncnc3C2)on1 | 9.54%
7 | COC(=O)CN(Cc1ccccc1C)C(=O)COCC1CC1 | -2.06%
8 | O=C(Nc1ccc(CC(=O)N2CCSCC2)cc1)NC1CC1 | 14.5%
9 | O=C(CCc1ccsc1)N1CCCC(N2CCNC2=O)C1 (centres undefined) | -10.5%
10 | CCC(C)Oc1ccccc1CN1Cc2ncccc2C1=O (centres undefined) | 0.0852%
11 | CCc1cnc(N2CC[C@H]3[C@@H]2CCC(=O)N3c2cccnc2)nc1 | -7.03%
12 | Cc1cnn(CC(C)NCc2ccc(OCc3noc(C)n3)cc2)c1 (centres undefined) | -0.0911%
13 | O=C(C1CCOC1)N1CCc2ncnc(NC3CCC3)c2CC1 (centres undefined) | -2.47%
14 | O=C(CCn1ncc2c(Cl)cccc21)NCCCn1cccn1 | -5.51%
15 | CCNc1ncc(CN2C[C@@H](CN3CCC(CO)CC3)[C@@H](CO)C2)cn1 | -2.73%
16 | Cc1nc(C2CCNCC2)cc(N2CCOc3ccccc3C2)n1 | -4.26%
17 | Cc1nc(CCN)cc(N2CCC(O)(c3ccc(Cl)cc3)CC2)n1 | 19.3%
18 | COCCCNC(=O)CN(C)C(=O)c1cc(C)sc1C | -14%
19 | Cc1cc(CN2CCN(CC3CC3)[C@@H]3CS(=O)(=O)C[C@@H]32)cc(C)c1O | -2.43%
20 | COc1ccc(OCCN(C)S(=O)(=O)N2CCOCC2)cc1 | -6.12%
21 | CO[C@@H]1CC[C@H]2[C@H]1OCCN2C(=O)c1nn(C)c2ccccc12 | 20.6%
22 | N#Cc1ccc(-c2nnc(CSCCN3CCOCC3)o2)cc1 | -5.77%
23 | CCOC(=O)N1CC(C)=C(C)CN1C(=O)Nc1ccc(Cl)c(Cl)c1 | 6.17%

Row | SMILES | cytotoxicity at 70.5 h
24 | Cc1n[nH]c(C2CN(Cc3csc(C4CCCCC4)n3)CCO2)n1 (centres undefined) | 0.0665%
25 | O=C(CN1CCOCC1CC(=O)c1ccco1)NCc1ccccn1 (centres undefined) | 2.07%
26 | CC(C)N1CC[C@H](c2nc3ccc(C(F)(F)F)cc3[nH]2)C1 | -5.84%
27 | COC1CCN(c2cc(C(C)C)nc3ccnn23)C1 (centres undefined) | 5.73%
28 | CS(=O)(=O)CCC(=O)Nc1nccn1Cc1ccccc1Cl | 0.444%
29 | COc1cc(NCC(O)CN2CCCCCC2)ncn1 (centres undefined) | -7.58%
30 | Cc1ccc(C(=O)N2CCCS2(=O)=O)cc1Cl | -19.9%
31 | Cc1cc(NC(=O)Nc2ccc3c(ccn3CCN(C)C)c2)n(C)n1 | 2.58%
32 | CCc1c(C(=O)N2CCOC(C)(C)C2)cnn1-c1ccccn1 | -2.04%
33 | CC(O)CN1CCC(CNCc2cccc(OC(F)(F)F)c2)CC1 (centres undefined) | 5.77%
34 | CC(C)[C@H](NS(C)(=O)=O)C(=O)NCc1cc(-c2ccco2)nn1C | 7.38%
35 | CCNC(=O)C(C)Oc1ccc(N(C)S(C)(=O)=O)cc1 (centres undefined) | -5.5%
36 | O=C1NCCCC[C@@H]1Nc1ccc(-c2nc(C3CC3)no2)cn1 | -2.61%
37 | CCn1ncc2c1C(COCC1CC1)N(Cc1cnn(C)c1)CC2 (centres undefined) | -3.67%
38 | Cc1noc(C(C)C)c1C(=O)NCc1cccc(N(C)C)c1 | 12.6%
39 | Fc1ccc(C(NCc2nnc(C3CC3)o2)C2CCC2)cc1 (centres undefined) | -4.6%
40 | O=C(C1=CCCC1)N1CCC2(CC1)CC(Oc1cccnc1)CO2 (centres undefined) | -0.424%
41 | Cc1noc(C)c1CN1CCn2cc(CNc3ccccn3)nc2C1 | 5.28%
42 | CC[C@H]1CN(C(=O)c2cccnc2)CC[C@H]1CC(=O)NCCOC | -1.87%
43 | CC1COCCN1C(=O)COc1ccc(Oc2ccccn2)cc1 (centres undefined) | 1.4%
44 | COc1ccc(C[C@H]2CN(C3CCOCC3)CC[C@@H]2OCC2CC2)cc1 | -3.98%
45 | Cc1cnn(CCNCCCOc2ccc(C#N)cc2)c1 | 3.37%
46 | Cc1cc(C)n(CC(C)CNC(=O)CCc2ccco2)n1 (centres undefined) | -6.24%

Row | SMILES | cytotoxicity at 70.5 h
47 | CN(C(=O)c1cccc(NCC(=O)O)c1)C(C1CC1)C1CC1 | -8.7%
48 | C[C@@H]1C[C@H]2CN(Cc3nccs3)C[C@H]2O1 | -10.9%
49 | Cc1c(C(=O)N(C)CC(F)(F)F)nnn1-c1ccccc1Cl | 6.88%
50 | Cc1ccc(NS(C)(=O)=O)c(C(=O)NCCC(=O)NC(C)C)c1 | -6.46%
51 | Cc1ccc(C(=O)NCC(O)c2cccc(F)c2)c(=O)[nH]1 (centres undefined) | -0.0981%
52 | CC(=O)c1cccc(NC(=O)N(CC(F)F)C2CC2)c1 | 19.6%
53 | Cc1cnn(CCNCC(=O)NCC2(c3ccccc3)CC2)c1 | 31.1%
54 | Cc1cc(N2CCC(N3CCOCC3)C2)n2nc(C)c(C)c2n1 (centres undefined) | -4.03%
55 | CN(C)S(=O)(=O)N1CCC(Oc2ccccn2)CC1 | 3.95%
56 | Cc1cc(N(C)CCN(C)C)n2nc(C)cc2n1 | -1.46%
57 | CCC(C)NC(=O)c1sccc1-n1cnnn1 (centres undefined) | 27.2%
58 | O=c1c2ccccc2cnn1Cc1cncn1C1CC1 | -6.14%
59 | COCCOCCNS(=O)(=O)C1CS(=O)(=O)c2ccccc21 (centres undefined) | -7.79%
60 | CN1CCCN(c2ccc(F)cc2CNC(=O)c2ccsc2)CC1 | -4.69%
61 | OCCOCc1n[nH]c2c1CN(Cc1ccco1)C2 | 12.9%
62 | Cc1ccc(N2N=C(C(N)=O)S(=O)(=O)c3cccnc32)cc1 | -2.2%
63 | Cc1occc1C(=O)N1CCn2c(Cn3cncn3)cnc2C1C (centres undefined) | 50.5%
64 | CSc1nsc(NC(=O)N(C)Cc2ccc3c(c2)OCO3)n1 | -8.04%
65 | COCC(=O)NCc1nn(CCN2CCCC2)c(=O)c2ccccc12 | 29%
66 | Cc1ccc(C(=O)NCc2cc(F)ccc2N2CCCN(C)CC2)o1 | 1.17%
67 | c1ccc(NC[C@@H]2CCC[C@@H]3CN(Cc4cc[nH]n4)C[C@@H]32)nc1 | -12.4%
68 | CS(=O)(=O)CCCNCc1c(Cl)cccc1N1CCCC1 | -10.5%
69 | CN(Cc1ccccc1)c1ncccc1CNC1CCSCC1 | -2.31%

Row | SMILES | cytotoxicity at 70.5 h
70 | O=C(NCc1ccc(-n2cncn2)nc1)c1ccoc1 | 22.2%
71 | CS(=O)(=O)c1ccc(OCCCN2CCc3cncnc3C2)cc1 | 23.6%
72 | O=C1[C@@H]2C[C@H](O)CCN2C(=O)CN1CCSc1ccccn1 | 0.109%
73 | CN1C(=O)CC[C@@H]2[C@H]1CCN2S(=O)(=O)c1cccs1 | -1.06%
74 | Cc1cccn2c(=O)cc(CSCC(=O)Nc3nnc(C(C)C)s3)nc12 | 1.52%
75 | COCCNC(=O)NCc1cccc(-n2ccnc2)c1 | -13.7%
76 | CCc1nccn1-c1cccc(C2CCN(C(=O)COC)CC2)n1 | 0.0936%
77 | O=C1CN(C(=O)CSC2CCCc3ccccc32)CCN1 (centres undefined) | 5.33%
78 | COCCN1CCOCC2(CCCN(Cc3ccc(C)o3)C2)C1 (centres undefined) | 7.21%
79 | Cc1cc(C)n(CC(C)NC2CCN(Cc3cccnc3)CC2)n1 (centres undefined) | -7.19%
80 | CNC(=O)Cc1noc(-c2cc3c(s2)CCC(C)C3)n1 (centres undefined) | -3.99%
81 | NC(=O)N1CCC(NCc2cc(C(F)(F)F)ccc2Cl)CC1 | -5.57%
82 | CN(Cc1ccsc1)C(=O)Nc1ccc(N(C)C)nc1 | -2.83%
83 | CCc1nc(CCNS(=O)(=O)c2cccc(C(=O)N(C)CC)c2)cs1 | -16%
84 | CCCOCC(=O)N1CCCN(Cc2csc(CC)n2)CC1 | 6.02%
85 | COCCN1CCCC(c2nccnc2Nc2nc(C)cs2)C1 (centres undefined) | -4.96%
86 | O=C(CN1C(=O)CCC1=O)N1CCC(S(=O)(=O)Cc2ccco2)CC1 | -3.03%
87 | Cc1cnn(C(C)C2CC2)c1NC(=O)c1ccco1 (centres undefined) | -3.4%
88 | O=C(NCc1cnc2n1CCN(CC1CC1)C2)C1CC1 | 28%
89 | OCC1CCCN1c1cc(N2CCN(c3ccccn3)CC2)ncn1 (centres undefined) | -9.58%
90 | Cc1ccccc1C(NC(=O)CNC(=O)c1ccoc1C)C(C)C (centres undefined) | 11.7%
91 | CC(C)OCCCN(CC(=O)N1CCNCC1)C(=O)c1ccc(F)cc1 | 19.8%
92 | O=C(NC[C@H]1OC[C@@H](NC2CCCCC2)[C@@H]1O)c1cccs1 | -5.2%

Row | SMILES | cytotoxicity at 70.5 h
93 | CCS(=O)(=O)N1CC[C@H]2[C@H]1CC(=O)N2Cc1csc(C)n1 | -1.34%
94 | COC1CCN(c2ccc(F)cc2CN(C)S(C)(=O)=O)CC1 | -8.29%
95 | CCc1ncc2c(n1)CN(Cc1nc(-c3ccsc3)no1)CC2 | -6.7%
96 | CNc1cccc(CC2COCCN(C(=O)c3cccnc3)C2)n1 (centres undefined) | -3.83%
97 | Cc1nccc(N[C@H]2CN(C(=O)C3(C#N)CCOCC3)C[C@@H]2C(C)C)n1 | 12%
98 | Cc1occc1C(=O)NCC(=O)NCCOc1ccc2c(c1)CCC2 | -10.4%
99 | Cc1nc(O)c2c(n1)CCN(Cc1cc(C)sc1C)CC2 | 23.6%
100 | CN(C)CCn1ccnc1C1CCN(C(=O)CCc2ccncc2)CC1 | -5.61%
101 | CC(C)Nc1ncnc2c1CCN(C(=O)CC1CCCC1)CC2 | 9.38%
102 | CNC(=O)CCc1cc(C)nc(C2CCN(CC(=O)N(C)C)CC2)c1 | -6.28%
103 | Cn1nc(C(=O)N2CCOCC2)c2c1CN(CC1CC1)C2 | -3.11%
104 | CCC[C@@H]1CN(c2ncnc3ccsc23)C[C@H]1NS(C)(=O)=O | -8.21%
105 | Cc1csc(CNCC2CCCN(C(=O)OC(C)(C)C)C2)n1 (centres undefined) | -1.06%
106 | CCn1nc(C)c(CNCCn2cc(C)cn2)c1C | -4.46%
107 | Cc1nc(C)n(CC(C)C(=O)N2CCC(N3CCC(O)CC3)CC2)n1 (centres undefined) | -3.14%
108 | NCCC(=O)Nc1ccc(-c2ccccc2)cc1 | -5.02%
109 | CC(C)c1nnc2sc(CC3CN(C(C)C)CCO3)nn12 (centres undefined) | -7.69%
110 | Cc1nnc(N2CCC(CS(N)(=O)=O)CC2)c(C#N)c1C | -9.82%
111 | O=c1[nH]c2c(-c3ccccn3)nsc2c(=O)n1CC1CCCO1 (centres undefined) | -11.7%
112 | Cc1cc(C)c(S(N)(=O)=O)cc1C(=O)NCCN1CCCCC1 | -16.1%
113 | CCSCCC(=O)NCc1cnn(-c2ccc(F)cc2F)c1 | 7.31%
114 | CCNc1ncc(CN2C[C@H](C3CC3)[C@@H](N)C2)cn1 | -1.95%
